{
  "source": "patent US20160113895A1",
  "about": "“Novel Use of Adapalene in Treating Esophageal Cancer and Gastrointestinal Stromal Tumor” (Biodelight Biotech Inc., priority 2013, published 2016)",
  "system": "A549 implanted tumors",
  "assay": "Subcutaneous A549 xenograft model, groups 2a-2c, o.p.",
  "conditions": "for Tumor inhibition rate (%): A549, o.p. once daily, Tarceva 20 mpk; for Tumor inhibition rate (%) / Body weight change (%): NSL-8 70 mpk; for Body weight change (%): A549 tumor-bearing mice, Tarceva 20 mpk o.p.",
  "procedure": "The antitumor efficacy of the drug lead nsl-8 searched was studied using the subcutaneous xenografted A549 and HCC827 lung cancer tumor models in vivo. […] Mice were maintained in individual ventilated cages (IVC, max. 4 mice/cage) at constant temperature and humidity. Animal weights were determined three times (Monday, Wednesday and Friday) for groups 1a and 1b or two times (Monday and Thursday) for groups 2a-2c and 3a-3c animals. Animal behaviour was monitored daily.\nOn day 0, either 2×10^6 A549 or 2×10^6 HCC827 tumor cells in 100 μL PBS were implanted into the subcutaneous space of the left flank of all corresponding BALB/c nude and SCID mice, respectively. In the following, tumor sizes were determined by caliper measurement. Tumor sizes were calculated according to the formula W^2×Lg/2 (Lg=length and W=the perpendicular width of the tumor, L>W). On day 48 or 30, after mean tumor volumes had reached approx. 100 mm^3, the corresponding tumor-bearing animals were randomized into 2 groups of 8 (A549 model: groups 1a and 1b) or 10 animals (A549 model: groups 2a and 2b) according to tumor sizes. On day 24 or 28, after mean tumor volumes had reached approx. 100 mm^3, the corresponding tumor-bearing animals were randomized into 2 groups of 10 animals (HCC827 model: groups 3a and 3b) according to tumor sizes. […] The percentage of tumor growth inhibition (TGI) was calculated using the following formula: […]\nwhere T and C represent the mean tumor volume of the treatment and the control group, respectively.\nThe solution was aliquoted into several 15 ml sterile centrifuge tubes in 650 μl quantity per tube and then stored frozen at −80° C. until use. […] Animals of group 1b received 40 mg/kg nsl-8 dosage solution once daily through i.p. route on days 48-52 and 62-66, while those of groups 2b and 3b received 70 mg/kg nsl-8 dosage solution once daily through o.p. route on days 1-14 (group 2b) and days 1-14 (group 3b), respectively (Table 4).\nGroups 1a and 1b (A549 model) were terminated on day 69, while groups 2a-2c (A549 model) and 3a-3c (HCC827 model) were terminated on day 15. At necropsy, animals were killed by cervical dislocation. Primary tumor weights and volumes were determined. The tumor volume and weight were analysed using descriptive data analysis (Mean, SEM, Median). Statistical analysis of efficacy data was performed using the unpaired t-test. All the data analyses were performed using GraphPad Prism 5 from GraphPad Software, Inc., San Diego, USA.\nThe serum level of blood urea nitrogen (BUN) was measured for assessing the renal function while those of alanine aminotransferase (ALT) and aspartate aminotransferase (AST) were measured using Ektachem DT system (Johnson & Johnson Clinical Diagnostics) for assessing the liver function. The EDTA treated anticoagulated blood samples were also collected for making a complete peripheral blood count by using a Hematology Analyzer (Sysmex, XT-1800i).\nFor this study, 0.161 ml nsl-8 stock solution made in DMSO was mixed with 1.339 ml 0.9% w/v saline so that the volume of a final dosage solution prepared to feed an animal was 1.5 ml and containing 10% DMSO. Therefore, both administration routes and vehicles used in treating groups 2a-2b and 3a-3b animals were quite different from that used in treating groups 1a-1b animals.",
  "data": [
    {"smiles": "COc1ccc(-c2ccc3cc(C(=O)O)ccc3c2)cc1C12CC3CC(CC(C3)C1)C2", "note": "[nsl-8, 6-[3-(1-adamantyl)-4-methoxyphenyl]-2-naphthalenecarboxylic acid]", "values": [
      {"measurement": "cell counts of white blood cell, red blood cell, or platelet versus vehicle", "setting": "A549 model, peripheral blood at end-point, nsl-8 70 mg/kg, Tarceva 20 mg/kg o.p.", "value": "no significant difference"},
      {"measurement": "serum levels of BUN, ALT, and AST among treatment groups", "setting": "A549 model, upon completion of the experiments", "value": "no significant difference"},
      {"measurement": "Tumor inhibition rate (%)", "setting": "Day 0", "value": 0, "unit": "%"},
      {"measurement": "Body weight change (%)", "setting": "Day 0", "value": 0, "unit": "%"},
      {"measurement": "Tumor inhibition rate (%)", "setting": "Day 3", "value": 7.1, "unit": "%"},
      {"measurement": "Body weight change (%)", "setting": "Day 3", "value": "−1.9", "unit": "%"},
      {"measurement": "Tumor inhibition rate (%)", "setting": "Day 7", "value": 12.0, "unit": "%"},
      {"measurement": "Body weight change (%)", "setting": "Day 7", "value": "−1.3", "unit": "%"},
      {"measurement": "Tumor inhibition rate (%)", "setting": "Day 10", "value": 17.8, "unit": "%"},
      {"measurement": "Body weight change (%)", "setting": "Day 10", "value": "−2.6", "unit": "%"},
      {"measurement": "Tumor inhibition rate (%)", "setting": "Day 14", "value": 19.1, "unit": "%"},
      {"measurement": "Body weight change (%)", "setting": "Day 14", "value": "−2.0", "unit": "%"},
      {"measurement": "decline of body weight upon completion of the experiments", "setting": "group 2b, 70 mg/kg daily o.p.", "value": 2.0, "unit": "%"}
    ]}
  ]
}
